From patent US20210024545A1, “SUBSTITUTED DIAZAHETERO-BICYCLIC COMPOUNDS AND THEIR USE” (Bayer Aktiengesellschaft, priority 2016, published 2021)

Assays:
human TASK-1 = human TASK-1 (Homo sapiens, UniProt O14649); experiment: Inhibition of recombinant TASK-1 in stably transfected CHO cells, KCl-induced depolarization, voltage-sensitive dye (B-2); assay type: cell-based; parameters: expressed in transfected cells; host or cells: stably transfected CHO cells; settings: depolarization induced by 40 mM potassium chloride, some mean values from multiple determinations
Method: (§1) B-2. Inhibition of Recombinant TASK-1 and TASK-3 In Vitro
(§2) The investigations on the inhibition of the recombinant TASK-1 and TASK-3 channels were conducted using stably transfected CHO cells. The compounds of the invention were tested here with administration of 40 mM of potassium chloride in the presence of a voltage-sensitive dye using the method described in detail in the following references [Whiteaker et al., Validation of FLIPR membrane potential dye for high-throughput screening of potassium channel modulators, J. Biomol. Screen. 6 (5), 305-312 (2001); Molecular Devices FLIPR Application Note: Measuring membrane potential using the FLIPR® membrane potential assay kit on Fluorometric Imaging Plate Reader (FLIPR®) systems, http://www.moleculardevices.com/reagents-supplies/assay-kits/ion-channels/flipr-membrane-potential-assay-kits]. The activity of the test substances was determined as their ability to inhibit a depolarization induced in the recombinant cells by 40 mM potassium chloride. The concentration which can block half of this depolarization is referred to as IC50).
(§3) Table 2 below lists the IC50 values from this assay determined for individual working examples of the invention (some as mean values from multiple independent individual determinations): […]

human TASK-3 = human TASK-3 (Homo sapiens, UniProt Q9NPC2); experiment: Inhibition of recombinant TASK-3 in stably transfected CHO cells, KCl-induced depolarization, voltage-sensitive dye (B-2); assay type: cell-based; parameters: expressed in transfected cells; host or cells: stably transfected CHO cells; settings: depolarization induced by 40 mM potassium chloride, some mean values from multiple determinations
Method: as §1, §2, §3

Chain of human TASK-1 (O14649 whole entry): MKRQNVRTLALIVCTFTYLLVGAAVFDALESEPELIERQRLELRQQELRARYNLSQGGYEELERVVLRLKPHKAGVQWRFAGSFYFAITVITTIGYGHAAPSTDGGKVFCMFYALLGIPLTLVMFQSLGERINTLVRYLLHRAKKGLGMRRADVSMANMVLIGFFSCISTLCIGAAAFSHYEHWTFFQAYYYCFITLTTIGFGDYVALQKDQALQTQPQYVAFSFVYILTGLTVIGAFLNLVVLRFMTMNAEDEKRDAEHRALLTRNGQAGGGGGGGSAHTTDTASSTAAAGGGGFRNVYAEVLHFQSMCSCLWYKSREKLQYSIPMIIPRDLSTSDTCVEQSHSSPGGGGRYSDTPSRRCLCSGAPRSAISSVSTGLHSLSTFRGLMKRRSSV
Chain of human TASK-3 (Q9NPC2 whole entry): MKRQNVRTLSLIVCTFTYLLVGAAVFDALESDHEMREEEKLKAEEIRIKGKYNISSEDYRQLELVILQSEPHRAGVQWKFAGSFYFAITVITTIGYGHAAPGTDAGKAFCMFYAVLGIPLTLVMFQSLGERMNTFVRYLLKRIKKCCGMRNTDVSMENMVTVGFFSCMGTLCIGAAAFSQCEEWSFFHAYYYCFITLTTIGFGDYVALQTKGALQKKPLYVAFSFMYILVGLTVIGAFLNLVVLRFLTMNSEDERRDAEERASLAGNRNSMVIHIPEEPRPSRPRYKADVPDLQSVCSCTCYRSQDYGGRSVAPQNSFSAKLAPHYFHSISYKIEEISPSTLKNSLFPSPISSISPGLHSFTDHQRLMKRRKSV

| SMILES | IC50 (human TASK-1) [nM] | IC50 (human TASK-3) [nM] |
| --- | --- | --- |
| COc1cccc(C(=O)N2CC3CCC2CN3Cc2c(-c3ccc(Br)cc3)nc3ccccn23)n1 (racemic) [Example 151, (5-{[2-(4-Bromophenyl)imidazo[1,2-a]pyridin-3-yl]methyl}-2,5-diazabicyclo[2.2.2]oct-2-yl)(6-methoxypyridin-2-yl)methanone] | 72 | 1.8 |
| O=C(c1ccccc1F)N1CC2CCC1CN2Cc1c(-c2ccc(Br)cc2)nc2ccccn12 (racemic) [Example 152, (5-{[2-(4-Bromophenyl)imidazo[1,2-a]pyridin-3-yl]methyl}-2,5-diazabicyclo[2.2.2]oct-2-yl)(2-fluorophenyl)methanone] | 2900 | 75 |
| COc1ccc(F)c(C(=O)N2CC3CCC2CN3Cc2c(-c3ccc(Br)cc3)nc3ccccn23)n1 (racemic) [Example 153, (5-{[2-(4-Bromophenyl)imidazo[1,2-a]pyridin-3-yl]methyl}-2,5-diazabicyclo[2.2.2]oct-2-yl)(3-fluoro-6-methoxypyridin-2-yl)methanone] | 1000 | 34 |
| COc1ccc(Cl)c(C(=O)N2CC3CCC2CN3Cc2c(-c3ccc(Br)cc3)nc3ccccn23)n1 (racemic) [Example 199, (5-{[2-(4-Bromophenyl)imidazo[1,2-a]pyridin-3-yl]methyl}-2,5-diazabicyclo[2.2.2]oct-2-yl)(3-chlor-6-methoxypyridin-2-yl)methanone(racemate)] | 33 | 1.8 |
| CC(C)(C)OC(=O)N1CC2CCC1CN2Cc1c(-c2ccc(Cl)cc2)nc2ccccn12 (single isomer, unassigned) [Example 15, tert-Butyl 5-{[2-(4-chlorophenyl)imidazo[1,2-a]pyridin-3-yl]methyl}-2,5-diazabicyclo[2.2.2]octane-2-carboxylate] | 397 | 82 |
| CC(C)(C)OC(=O)N1CC2CCC1CN2Cc1c(-c2ccc(Cl)cc2)nc2ccccn12 (single isomer, unassigned) [Example 16, tert-Butyl 5-{[2-(4-chlorophenyl)imidazo[1,2-a]pyridin-3-yl]methyl}-2,5-diazabicyclo[2.2.2]octane-2-carboxylate] | 1300 | 600 |
| O=C(c1ccccc1F)N1CC2CCC1CN2Cc1c(-c2ccc(Cl)cc2)nc2ccccn12 (single isomer, unassigned) [Example 35] | 350 | 200 |
| O=C(c1ccccc1F)N1CC2CCC1CN2Cc1c(-c2ccc(Cl)cc2)nc2ccccn12 (single isomer, unassigned) [Example 36] | 670 | 250 |
| O=C(C1CCCC1)N1CC2CCC1CN2Cc1c(-c2ccc(Cl)cc2)nc2ccccn12 (single isomer, unassigned) [Example 37] | 350 | 63 |
| O=C(C1CCCC1)N1CC2CCC1CN2Cc1c(-c2ccc(Cl)cc2)nc2ccccn12 (single isomer, unassigned) [Example 38] | 790 | 380 |
| COc1cccc(C(=O)N2CC3CCC2CN3Cc2c(-c3ccc(Cl)cc3)nc3ccccn23)c1 (single isomer, unassigned) [Example 39] | 640 | 370 |
| COc1cccc(C(=O)N2CC3CCC2CN3Cc2c(-c3ccc(Cl)cc3)nc3ccccn23)c1 (single isomer, unassigned) [Example 40] | 533 | 104 |
| O=C(c1cc(F)ccc1Cl)N1CC2CCC1CN2Cc1c(-c2ccc(Cl)cc2)nc2ccccn12 (single isomer, unassigned) [Example 41] | 76 | 3.9 |
| O=C(C1CCCCC1)N1CC2CCC1CN2Cc1c(-c2ccc(Cl)cc2)nc2ccccn12 (single isomer, unassigned) [Example 42] | 880 | 17 |
| O=C(C1CCC1)N1CC2CCC1CN2Cc1c(-c2ccc(Cl)cc2)nc2ccccn12 (single isomer, unassigned) [Example 43] | 320 | 8.9 |
| COc1ccccc1C(=O)N1CC2CCC1CN2Cc1c(-c2ccc(Cl)cc2)nc2ccccn12 (single isomer, unassigned) [Example 44] | 130 | 3.3 |
| COc1ccc(F)cc1C(=O)N1CC2CCC1CN2Cc1c(-c2ccc(Cl)cc2)nc2ccccn12 (single isomer, unassigned) [Example 45] | 340 | 13 |
| Cc1ccccc1C(=O)N1CC2CCC1CN2Cc1c(-c2ccc(Cl)cc2)nc2ccccn12 (single isomer, unassigned) [Example 46] | 73 | 5 |
| Cc1ccc(F)cc1C(=O)N1CC2CCC1CN2Cc1c(-c2ccc(Cl)cc2)nc2ccccn12 (single isomer, unassigned) [Example 47] | 70 | 15 |
| O=C(c1cccc(OC(F)(F)F)c1)N1CC2CCC1CN2Cc1c(-c2ccc(Cl)cc2)nc2ccccn12 (single isomer, unassigned) [Example 48] | 390 | 17 |

| SMILES | IC50 (human TASK-1) [nM] | IC50 (human TASK-3) [nM] |
| --- | --- | --- |
| O=C(c1cccc(Cl)c1)N1CC2CCC1CN2Cc1c(-c2ccc(Cl)cc2)nc2ccccn12 (single isomer, unassigned) [Example 49] | 740 | 12 |
| O=C(c1ccccn1)N1CC2CCC1CN2Cc1c(-c2ccc(Cl)cc2)nc2ccccn12 (single isomer, unassigned) [Example 51] | 290 | 34 |
| Cn1ccnc1C(=O)N1CC2CCC1CN2Cc1c(-c2ccc(Cl)cc2)nc2ccccn12 (single isomer, unassigned) [Example 52] | 170 | 10 |
| Cc1cccc(C(=O)N2CC3CCC2CN3Cc2c(-c3ccc(Cl)cc3)nc3ccccn23)c1 (single isomer, unassigned) [Example 53] | 140 | 34 |
| CCOc1cccc(C(=O)N2CC3CCC2CN3Cc2c(-c3ccc(Cl)cc3)nc3ccccn23)c1 (single isomer, unassigned) [Example 54] | 470 | 76 |
| O=C(c1ccncc1)N1CC2CCC1CN2Cc1c(-c2ccc(Cl)cc2)nc2ccccn12 (single isomer, unassigned) [Example 55] | 2000 | 320 |
| CC(C)c1ccc(-c2nc3ccccn3c2CN2CC3CCC2CN3C(=O)c2ccccc2F)cc1 (single isomer, unassigned) [Example 57] | 1400 | 240 |
| COc1cccc(C(=O)N2CC3CCC2CN3Cc2c(-c3ccc(C(C)C)cc3)nc3ccccn23)n1 (single isomer, unassigned) [Example 60] |  | 610 |
| COc1cccc(C(=O)N2CC3CCC2CN3Cc2c(-c3ccc(C(C)C)cc3)nc3ccccn23)n1 (single isomer, unassigned) [Example 61] | 680 | 87 |
| CC(C)c1ccc(-c2nc3ccccn3c2CN2CC3CCC2CN3C(=O)C2CCCC2)cc1 (single isomer, unassigned) [Example 62] | 2800 | 760 |
| CC(C)c1ccc(-c2nc3ccccn3c2CN2CC3CCC2CN3C(=O)C2CCCC2)cc1 (single isomer, unassigned) [Example 63] | 490 | 140 |
| COc1ccc(F)c(C(=O)N2CC3CCC2CN3Cc2c(-c3ccc(Cl)cn3)nc3ccccn23)n1 (single isomer, unassigned) [Example 66] | 1100 | 110 |
| COc1ccc(Cl)c(C(=O)N2CC3CCC2CN3Cc2c(-c3ccc(Cl)cn3)nc3ccccn23)n1 (single isomer, unassigned) [Example 67] | 990 | 220 |
| COc1ccc(F)c(C(=O)N2CC3CCC2CN3Cc2c(-c3ccc(C(C)C)nc3)nc3ccccn23)n1 (single isomer, unassigned) [Example 127, (3-Fluoro-6-methoxypyridin-2-yl)(5-{[2-(6-isopropylpyridin-3-yl)imidazo[1,2-a]pyridin-3-yl]methyl}-2,5-diazabicyclo[2.2.2]oct-2-yl)methanone] | 9450 | 670 |
| COc1ccc(C)c(C(=O)N2CC3CCC2CN3Cc2c(-c3ccc(C(C)C)cc3)nc3ccccn23)n1 (single isomer, unassigned) [Example 137] | 190 | 14 |
| COc1ccc(C)c(C(=O)N2CC3CCC2CN3Cc2c(-c3ccc(Cl)cc3)nc3ccccn23)n1 (single isomer, unassigned) [Example 138] | 75 | 6.8 |
| COc1ccc(Cl)c(C(=O)N2C[C@@H]3CC[C@H]2CN3Cc2c(-c3ccc(Cl)cc3)nc3ccccn23)n1 (single isomer, unassigned; enantiomer 1) [Example 22] | 170 | 13 |
| Cc1cccc(Cl)c1NC(=O)N1C2CCC1CN(Cc1c(-c3ccc(Cl)cc3)nc3ccccn13)C2 [Example 165, N-(2-Chloro-6-methylphenyl)-3-{[2-(4-chlorophenyl)imidazo[1,2-a]pyridin-3-yl]methyl}-3,8-diazabicyclo[3.2.1]octane-8-carboxamide] | 25 |  |
| CCOC(=O)N1C2CCC1CN(Cc1c(-c3ccc(Cl)cc3)nc3ccccn13)C2 [Example 185, Ethyl 3-{[2-(4-chlorophenyl)imidazo[1,2-a]pyridin-3-yl]methyl}-3,8-diazabicyclo[3.2.1]octane-8-carboxylate] | 120 |  |
